Measurements taken from patent US8835134B2, “Cycloastragenol monoglucoside, preparation, pharmaceutical composition and application thereof” (Tianjin Institute of Pharmaceutical Research, priority 2007, dated 2014).

Legend:
isolated rat heart = assay: Cardiotonic effects on isolated heart (Langendorff perfusion); parameters: species or system Wistar rats
Description: Wistar rats (250-280 g) were anesthetized with chloral hydrate (360 mg/kg intraperitoneally) and heparinized with sodium heparin (1 mg) via sublingual vein. After opening the chest cavity, the hearts were quickly excised and immersed in cold Krebs-Henseleit (K-H) solution. Hearts were retrogradely perfused with 74 centimeters of water pressure via the aorta in a Langendorff apparatus with K-H solution, which was bubbled with a mixture of 95% O2 and 5% CO2. The suture fixed on cardiac apex was connected to a tension transducer which was connected to a polygraph (RM6300, Nihon Kohden, Japan) and a data acquisition workstation (MP150, BIOPAC Systems, USA) to a computer running Acknowledge (version 3.7.1).

Solubility = assay type: physicochemical

CC(C)(O)[C@@H]1CC[C@](C)([C@H]2[C@@H](O)C[C@@]3(C)[C@@H]4C[C@H](O[C@@H]5O[C@H](CO)[C@@H](O)[C@H](O)[C@H]5O)[C@H]5C(C)(C)[C@@H](O[C@@H]6OC[C@@H](O)[C@H](O)[C@H]6O)CC[C@@]56C[C@@]46CC[C@]23C)O1 [astragaloside IV, reference compound]
Contractility Variation (%) (isolated rat heart; 1 × 10^−7 mol/L): 24.56 ± 12.44^++ %
Contractility after administration (isolated rat heart; 1 × 10^−7 mol/L): 1.73 ± 0.42 g
Contractility before administration (isolated rat heart; 1 × 10^−7 mol/L): 1.42 ± 0.41 g
HR Variation (%) (isolated rat heart; 1 × 10^−7 mol/L): −24 ± 17^+ %
HR after administration (isolated rat heart; 1 × 10^−7 mol/L): 117 ± 52 bpm
HR before administration (isolated rat heart; 1 × 10^−7 mol/L): 151 ± 60 bpm
peak derivatives of contractility Variation (%) (isolated rat heart; 1 × 10^−7 mol/L): 21 ± 19^+ %
peak derivatives of contractility Δ T/S after administration (isolated rat heart; 1 × 10^−7 mol/L): 78 ± 14 g/s
peak derivatives of contractility Δ T/S before administration (isolated rat heart; 1 × 10^−7 mol/L): 66 ± 13 g/s
peak derivatives of diastolic force Variation (%) (isolated rat heart; 1 × 10^−7 mol/L): 15 ± 9^+ %
peak derivatives of diastolic force Δ T/S after administration (isolated rat heart; 1 × 10^−7 mol/L): -50 ± 11 g/s
peak derivatives of diastolic force Δ T/S before administration (isolated rat heart; 1 × 10^−7 mol/L): -44 ± 11 g/s
Contractility Variation (%) (isolated rat heart; 1 × 10^−8 mol/L): 6.00 ± 9.25%
Contractility after administration (isolated rat heart; 1 × 10^−8 mol/L): 1.94 ± 0.43 g
Contractility before administration (isolated rat heart; 1 × 10^−8 mol/L): 1.83 ± 0.38 g
HR Variation (%) (isolated rat heart; 1 × 10^−8 mol/L): −6 ± 5%
HR after administration (isolated rat heart; 1 × 10^−8 mol/L): 144 ± 34 bpm
HR before administration (isolated rat heart; 1 × 10^−8 mol/L): 152 ± 30 bpm
peak derivatives of contractility Variation (%) (isolated rat heart; 1 × 10^−8 mol/L): 6 ± 15%
peak derivatives of contractility Δ T/S after administration (isolated rat heart; 1 × 10^−8 mol/L): 81 ± 19 g/s
peak derivatives of contractility Δ T/S before administration (isolated rat heart; 1 × 10^−8 mol/L): 76 ± 18 g/s
peak derivatives of diastolic force Variation (%) (isolated rat heart; 1 × 10^−8 mol/L): 8 ± 8%
peak derivatives of diastolic force Δ T/S after administration (isolated rat heart; 1 × 10^−8 mol/L): -46 ± 9 g/s
peak derivatives of diastolic force Δ T/S before administration (isolated rat heart; 1 × 10^−8 mol/L): -43 ± 10 g/s
Contractility Variation (%) (isolated rat heart; 3 × 10^−8 mol/L): 6.98 ± 8.82%
Contractility after administration (isolated rat heart; 3 × 10^−8 mol/L): 1.88 ± 0.40 g
Contractility before administration (isolated rat heart; 3 × 10^−8 mol/L): 1.78 ± 0.46 g
HR Variation (%) (isolated rat heart; 3 × 10^−8 mol/L): −14 ± 13%
HR after administration (isolated rat heart; 3 × 10^−8 mol/L): 145 ± 65 bpm
HR before administration (isolated rat heart; 3 × 10^−8 mol/L): 167 ± 64 bpm
peak derivatives of contractility Variation (%) (isolated rat heart; 3 × 10^−8 mol/L): 12 ± 7^+ %
peak derivatives of contractility Δ T/S after administration (isolated rat heart; 3 × 10^−8 mol/L): 76 ± 18 g/s
peak derivatives of contractility Δ T/S before administration (isolated rat heart; 3 × 10^−8 mol/L): 69 ± 19 g/s
peak derivatives of diastolic force Variation (%) (isolated rat heart; 3 × 10^−8 mol/L): 10 ± 11%
peak derivatives of diastolic force Δ T/S after administration (isolated rat heart; 3 × 10^−8 mol/L): -45 ± 12 g/s
peak derivatives of diastolic force Δ T/S before administration (isolated rat heart; 3 × 10^−8 mol/L): -41 ± 12 g/s
Contractility (isolated rat heart; isolated rat heart): increased
Heart rate (isolated rat heart; isolated rat heart): decreased
Peak derivatives of contractility (isolated rat heart; isolated rat heart): increased
Peak derivatives of diastolic force (isolated rat heart; isolated rat heart): increased
solubility (Solubility): 2-4 mg/100 ml

CC(C)(O)[C@@H]1CC[C@](C)([C@H]2[C@@H](O)C[C@@]3(C)C4C[C@H](OC5OC(CO)C(O)C(O)C5O)C5C(C)(C)[C@@H](O)CC[C@@]56C[C@@]46CC[C@]23C)O1 (stereo partly drawn) [CMG, Cycloastragenol-6-O-β-D-glucoside]
Contractility Variation (%) (isolated rat heart; 1 × 10^−7 mol/L): 17.08 ± 7.19^++ %
Contractility after administration (isolated rat heart; 1 × 10^−7 mol/L): 2.06 ± 0.59 g
Contractility before administration (isolated rat heart; 1 × 10^−7 mol/L): 1.77 ± 0.52 g
HR Variation (%) (isolated rat heart; 1 × 10^−7 mol/L): −38 ± 22^++ %
HR after administration (isolated rat heart; 1 × 10^−7 mol/L): 92 ± 35 bpm
HR before administration (isolated rat heart; 1 × 10^−7 mol/L): 145 ± 16 bpm
peak derivatives of contractility Variation (%) (isolated rat heart; 1 × 10^−7 mol/L): 18 ± 6^++ %
peak derivatives of contractility Δ T/S after administration (isolated rat heart; 1 × 10^−7 mol/L): 86 ± 13 g/s
peak derivatives of contractility Δ T/S before administration (isolated rat heart; 1 × 10^−7 mol/L): 73 ± 11 g/s
peak derivatives of diastolic force Variation (%) (isolated rat heart; 1 × 10^−7 mol/L): 14 ± 8^+ %
peak derivatives of diastolic force Δ T/S after administration (isolated rat heart; 1 × 10^−7 mol/L): -51 ± 14 g/s
peak derivatives of diastolic force Δ T/S before administration (isolated rat heart; 1 × 10^−7 mol/L): -45 ± 14 g/s
Contractility Variation (%) (isolated rat heart; 1 × 10^−8 mol/L): 7.72 ± 8.03%
Contractility after administration (isolated rat heart; 1 × 10^−8 mol/L): 1.97 ± 0.61 g
Contractility before administration (isolated rat heart; 1 × 10^−8 mol/L): 1.81 ± 0.49 g
HR Variation (%) (isolated rat heart; 1 × 10^−8 mol/L): −17 ± 18%
HR after administration (isolated rat heart; 1 × 10^−8 mol/L): 124 ± 25 bpm
HR before administration (isolated rat heart; 1 × 10^−8 mol/L): 156 ± 51 bpm
peak derivatives of contractility Variation (%) (isolated rat heart; 1 × 10^−8 mol/L): 6 ± 8%
peak derivatives of contractility Δ T/S after administration (isolated rat heart; 1 × 10^−8 mol/L): 76 ± 19 g/s
peak derivatives of contractility Δ T/S before administration (isolated rat heart; 1 × 10^−8 mol/L): 71 ± 15 g/s
peak derivatives of diastolic force Variation (%) (isolated rat heart; 1 × 10^−8 mol/L): 7 ± 9%
peak derivatives of diastolic force Δ T/S after administration (isolated rat heart; 1 × 10^−8 mol/L): -47 ± 16 g/s
peak derivatives of diastolic force Δ T/S before administration (isolated rat heart; 1 × 10^−8 mol/L): -44 ± 15 g/s
Contractility Variation (%) (isolated rat heart; 3 × 10^−8 mol/L): 5.84 ± 2.92%
Contractility after administration (isolated rat heart; 3 × 10^−8 mol/L): 1.92 ± 0.72 g
Contractility before administration (isolated rat heart; 3 × 10^−8 mol/L): 1.83 ± 0.72 g
HR Variation (%) (isolated rat heart; 3 × 10^−8 mol/L): −13 ± 12%
HR after administration (isolated rat heart; 3 × 10^−8 mol/L): 128 ± 23 bpm
HR before administration (isolated rat heart; 3 × 10^−8 mol/L): 150 ± 41 bpm
peak derivatives of contractility Variation (%) (isolated rat heart; 3 × 10^−8 mol/L): 11 ± 9^+ %
peak derivatives of contractility Δ T/S after administration (isolated rat heart; 3 × 10^−8 mol/L): 77 ± 16 g/s
peak derivatives of contractility Δ T/S before administration (isolated rat heart; 3 × 10^−8 mol/L): 70 ± 16 g/s
peak derivatives of diastolic force Variation (%) (isolated rat heart; 3 × 10^−8 mol/L): 10 ± 8%
peak derivatives of diastolic force Δ T/S after administration (isolated rat heart; 3 × 10^−8 mol/L): -51 ± 18 g/s
peak derivatives of diastolic force Δ T/S before administration (isolated rat heart; 3 × 10^−8 mol/L): -46 ± 15 g/s
Contractility (isolated rat heart; isolated rat heart): increased
Heart rate (isolated rat heart; isolated rat heart): decreased
Peak derivatives of contractility (isolated rat heart; isolated rat heart): increased
Peak derivatives of diastolic force (isolated rat heart; isolated rat heart): increased
cardiotonic effect (conclusion) (isolated rat heart; isolated rat heart): exhibited cardiotonic effects
solubility (Solubility): 40-50 mg/100 ml
